Converted amounts (≈) assume the structure as drawn. Where two headings read alike, the source gives them in different places.
What was measured:
[1] = Release kinetics of melatonin, USP Apparatus 2 dissolution testing; assay type: physicochemical; details: after 20 minutes; 500 ml buffer pH 6.8, 50 rpm, 37° C., 5 mg melatonin
Experimental: The release kinetics of melatonin was monitored using a USP Apparatus 2 dissolution testing system. The release was performed in 500 ml buffer at pH 6.8 (reflecting the pH in the oral cavity, typically in the range of pH 6.7 to 7.3) at 50 rpm stirring rate and 37° C. The dose in the dissolution tests was equivalent to 5 mg of melatonin. Melatonin was bought from PureBulk, Inc. USA. The dosage form with melatonin was compared to reference product from CVS Health, USA using the technology mentioned in U.S. Pat. No. 9,381,190 Other ingredients in the formulation include Microcrystalline cellulose (MCC) and Low-Substituted Hydroxypropyl Cellulose (L-HPC) Mannitol and magnesium stearate.

[2] = HPLC stability of melatonin during loading and storage; assay type: physicochemical; details: during loading and after storage at 4° C.
[3] = cited from earlier work

Structure (SMILES) | dissolution (melatonin released) [1] | stability (HPLC) [2] | solubility ([3]; in buffer at pH 6.8) | solubility ([3]; in water)
COc1ccc2[nH]cc(CCNC(C)=O)c2c1 [melatonin] | 93% | no degradation |  | 
CCN(CC)CCNC(=O)c1cc(Cl)c(N)cc1OC [metoclopramide] |  |  | 10000 µg/mL (≈ 33.4 mM) | > 6000 µg/mL

Reference: patent publication US20200078307A1, “POROUS SILICA PARTICLES FOR USE IN A COMPRESSED PHARMACEUTICAL DOSAGE FORM” (Nanologica AB, priority 2018, published 2020)
